Data: ChEMBL document CHEMBL1154226, “Synthesis and evaluation of inhibitors of cytochrome P450 3A (CYP3A) for pharmacokinetic enhancement of drugs” (Bioorg Med Chem Lett, 2009)

Assays:
Canis familiaris = organism: Canis familiaris; details: dog, in vivo, po, 5 mg/kg
in vivo = details: Beagle, dog, po, 5 mg/kg
Liver microsomes = assay: Intrinsic clearance in human liver microsomes; assay type: ADME, Microsome
Cytochrome P450 3A4 = Cytochrome P450 3A4 (Homo sapiens, UniProt P08684); assay: Inhibition of human recombinant CYP3A4-mediated oxidation of 7-benzyloxyquinoline
Cytochrome P450 3A4, sequence (P08684 whole entry): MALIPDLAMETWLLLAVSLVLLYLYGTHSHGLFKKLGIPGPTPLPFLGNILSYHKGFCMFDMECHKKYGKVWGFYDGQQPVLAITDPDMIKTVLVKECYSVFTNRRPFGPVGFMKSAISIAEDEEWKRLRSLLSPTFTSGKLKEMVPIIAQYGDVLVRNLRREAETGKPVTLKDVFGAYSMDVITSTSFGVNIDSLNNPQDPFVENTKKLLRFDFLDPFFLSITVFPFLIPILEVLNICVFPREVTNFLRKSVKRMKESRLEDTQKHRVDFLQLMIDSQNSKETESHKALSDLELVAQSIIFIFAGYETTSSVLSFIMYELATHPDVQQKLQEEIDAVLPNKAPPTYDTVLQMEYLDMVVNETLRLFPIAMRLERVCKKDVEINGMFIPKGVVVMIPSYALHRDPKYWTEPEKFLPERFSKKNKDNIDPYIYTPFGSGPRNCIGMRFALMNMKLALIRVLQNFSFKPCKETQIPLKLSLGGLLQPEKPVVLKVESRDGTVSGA

SMILES	AUC (Canis familiaris)	Cmax (in vivo)	IC50 (Liver microsomes)	IC50 (Cytochrome P450 3A4)
O=C(NC(Cc1ccccc1)CN(CC(Cc1ccccc1)NC(=O)OCc1cncs1)CC(Cc1ccccc1)NC(=O)OCc1cncs1)OCc1cncs1 (stereo not given)	0.06 µg/mL	30 ng/mL	54 nM	–
CCN(C[C@H](Cc1ccccc1)NC(=O)OCc1cnc[nH]1)C[C@H](Cc1ccccc1)NC(=O)OCc1cnc[nH]1	–	–	–	348 nM
CCN(C[C@H](CC(C)C)NC(=O)OCc1cncs1)C[C@H](CC(C)C)NC(=O)OCc1cncs1	–	–	–	136 nM
CCN(C[C@H](Cc1ccccc1)NC(=O)OCc1cccs1)C[C@H](Cc1ccccc1)NC(=O)OCc1cccs1	–	–	–	741 nM
CCN(C[C@H](Cc1ccccc1)NC(=O)OCc1cncs1)C[C@H](Cc1ccccc1)NC(=O)OCc1cncs1	1.38 µg/mL	610 ng/mL	–	–
CCN(CC(CC(=O)OC)NC(=O)OCc1cncs1)CC(CC(=O)OC)NC(=O)OCc1cncs1 (stereo not given)	–	–	–	88 nM
CCN(CC(CC1CCCCC1)NC(=O)OCc1cncs1)CC(CC1CCCCC1)NC(=O)OCc1cncs1 (stereo not given)	–	–	–	66 nM
CCN(C[C@H](Cc1ccccc1)NC(=O)OCc1cnco1)C[C@H](Cc1ccccc1)NC(=O)OCc1cnco1	–	–	–	274 nM
CCN(CCNC(=O)OCc1cncs1)CCNC(=O)OCc1cncs1	–	–	–	> 3000 nM
CC(C)c1nc(CN(C)C(=O)N[C@H](C(=O)N[C@@H](Cc2ccccc2)C[C@H](O)[C@H](Cc2ccccc2)NC(=O)OCc2cncs2)C(C)C)cs1 [RITONAVIR]	2.19 µg/mL	1320 ng/mL	40 nM	–
